# System: male participants
# Experiment: Diastolic blood pressure pre- and post-treatment, 8 week EGCG study stratified by COMT genotype
# Format: in vivo, human
# Details: 800 mg/day EGCG, 8 weeks
# From the text: This was a double blind, single centre, randomised and parallel design study. A total of 95 male participants were recruited on to the study using the following criteria: • healthy (no significant history or current disease or medication) • non-diabetic • non-smokers • aged 40-65 years • Body Mass Index >28 <38 The study population were randomly assigned to one of two treatment groups. Each group was balanced for age and insulin resistance (homeostatic model of insulin resistance HOMAir). HOMAir was measured from mean fasting plasma glucose values as described by Mathews et al, Diabetologia (1985), 28, 412-419. 75 subjects consented to genotype analysis for the COMT polymorphism rs4680. The active treatment was 800 mg/day EGCG and the placebo treatment 800 mg/day lactose. Treatments were administered twice daily with food for 8 weeks, one 400 mg capsule in the morning and one 400 mg capsule in the evening. The diastolic blood pressure was measured pre- and post-treatment. During the three days before pre- and post-treatment study visits, participants refrained from exercise, alcohol and ate their normal diet which consisted of at least 150 g carbohydrates. Blood pressure was measured manually on the upper arm using a sphygmomanometer (UA-787, A and D Medical). Three measurements were taken at 5 minute intervals whilst participants rested in a semi-recumbent position and with participants rested for at least 5 minutes before the first measurement. All three measurements were used to derive mean blood pressure values. Non-smoking status and alcohol abstinence were verified using Micro CO meter (Micro Medical Ltd) and AlcoMate Pro (AK Solutions) monitors, respectively. All equipment was calibrated before use. The data was stratified based on the derived COMT genotype and analysed. For each treatment group and genotype subset the mean and standard deviation for the change from baseline to endpoint was calculated. Paired t-tests were used to assess whether the change from baseline was statistically significant (p<0.05).
smiles,measurement,setting,value
"O=C(O[C@@H]1Cc2c(O)cc(O)cc2O[C@@H]1c1cc(O)c(O)c(O)c1)c1cc(O)c(O)c(O)c1 [EGCG, epigallocatechin gallate]","diastolic blood pressure, change compared to baseline","AA (low activity) COMT genotype, paired t-test p=0.036",Statistically significant reductions
same,"LSMean change from baseline in diastolic blood pressure, controlled for baseline","AA COMT genotype, p=0.044",statistically significant reduction
same,"diastolic blood pressure, change compared to baseline","AG (intermediate activity) COMT genotype, paired t-test p=0.006",Statistically significant reductions
same,"LSMean change from baseline in diastolic blood pressure, controlled for baseline","AG COMT genotype, p=0.012",statistically significant reduction
same,"diastolic blood pressure, change compared to baseline","GG (high activity) COMT genotype, paired t-test p=0.647",not statistically significant
same,"LSMean change from baseline in diastolic blood pressure, controlled for baseline",GG COMT genotype,not the GG group

# — patent US20110027785A1, “METHOD FOR DETERMINING SUSCEPTIBILITY OF INDIVIDUALS TO POLYPHENOLS” (CONOPCO, INC., D/B/A UNILEVER, priority 2009, published 2011)
